# Measured values published in PubChem BioAssay (NCI).
#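 Method: 48-hour compound exposure of cells in 96-well plates, five concentrations, linear interpolation of endpoints. GI50 is the concentration that inhibits growth by half. TGI is the concentration that stops growth completely.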
# Columns and labels:
# Assay in all cases: DTP human tumour cell line panel, 48 h
# 786-0 renal = tested on: 786-0 renal
# A498 renal = tested on: A498 renal
# A549 NSCLC = tested on: A549 NSCLC
# ACHN renal = tested on: ACHN renal
# BT-549 breast = tested on: BT-549 breast
# CAKI-1 renal = tested on: CAKI-1 renal
# CCRF-CEM leukemia = tested on: CCRF-CEM leukemia
# COLO 205 colon = tested on: COLO 205 colon
# DU-145 prostate = tested on: DU-145 prostate
# HCC-2998 colon = tested on: HCC-2998 colon
# HCT-116 colon = tested on: HCT-116 colon
# HCT-15 colon = tested on: HCT-15 colon
# HOP-62 NSCLC = tested on: HOP-62 NSCLC
# HOP-92 NSCLC = tested on: HOP-92 NSCLC
# HS 578T breast = tested on: HS 578T breast
# IGROV1 ovarian = tested on: IGROV1 ovarian
# KM12 colon = tested on: KM12 colon
# LOX IMVI melanoma = tested on: LOX IMVI melanoma
# M14 melanoma = tested on: M14 melanoma
# MALME-3M melanoma = tested on: MALME-3M melanoma
# MCF7 breast = tested on: MCF7 breast
# MDA-MB-231 breast = tested on: MDA-MB-231 breast
# MDA-MB-435 = tested on: MDA-MB-435
# MOLT-4 leukemia = tested on: MOLT-4 leukemia
# NCI-H226 lung = tested on: NCI-H226 lung
# NCI-H23 lung = tested on: NCI-H23 lung
# NCI-H460 lung = tested on: NCI-H460 lung
# NCI-H522 lung = tested on: NCI-H522 lung
# NCI/ADR-RES ovarian = tested on: NCI/ADR-RES ovarian
# OVCAR-3 ovarian = tested on: OVCAR-3 ovarian
# OVCAR-5 ovarian = tested on: OVCAR-5 ovarian
# OVCAR-8 ovarian = tested on: OVCAR-8 ovarian
# PC-3 prostate = tested on: PC-3 prostate
# RPMI-8226 leukemia = tested on: RPMI-8226 leukemia
# RXF 393 renal = tested on: RXF 393 renal
# SF-268 CNS = tested on: SF-268 CNS
# SF-295 CNS = tested on: SF-295 CNS
# SF-539 CNS = tested on: SF-539 CNS
# SK-MEL-2 melanoma = tested on: SK-MEL-2 melanoma
# SK-MEL-28 melanoma = tested on: SK-MEL-28 melanoma
# SK-MEL-5 melanoma = tested on: SK-MEL-5 melanoma
# SK-OV-3 ovarian = tested on: SK-OV-3 ovarian
# SN12C renal = tested on: SN12C renal
# SNB-19 CNS = tested on: SNB-19 CNS
# SNB-75 CNS = tested on: SNB-75 CNS
# SR leukemia = tested on: SR leukemia
# SW-620 colon = tested on: SW-620 colon
# T-47D breast = tested on: T-47D breast
# TK-10 renal = tested on: TK-10 renal
# UACC-257 melanoma = tested on: UACC-257 melanoma
# UACC-62 melanoma = tested on: UACC-62 melanoma
# UO-31 renal = tested on: UO-31 renal
structure (smiles),measurement,setting,value
O=C(NC1CCCCC1)c1ccc(Nc2ncnc3c2cnn3-c2ccccc2)cc1,GI50,786-0 renal,3.47 µM
same,TGI,786-0 renal,18.3 µM
same,GI50,A498 renal,3.83 µM
same,TGI,A498 renal,39.4 µM
same,GI50,A549 NSCLC,4.38 µM
same,TGI,A549 NSCLC,51.3 µM
same,GI50,ACHN renal,3.32 µM
same,TGI,ACHN renal,11 µM
same,GI50,BT-549 breast,5.69 µM
same,TGI,BT-549 breast,26.4 µM
same,GI50,CAKI-1 renal,14 µM
same,TGI,CAKI-1 renal,> 100 µM
same,GI50,CCRF-CEM leukemia,> 100 µM
same,TGI,CCRF-CEM leukemia,> 100 µM
same,GI50,COLO 205 colon,12.5 µM
same,TGI,COLO 205 colon,> 100 µM
same,GI50,DU-145 prostate,10.6 µM
same,TGI,DU-145 prostate,48.1 µM
same,GI50,HCC-2998 colon,> 100 µM
same,TGI,HCC-2998 colon,> 100 µM
same,GI50,HCT-116 colon,4.01 µM
same,TGI,HCT-116 colon,> 100 µM
same,GI50,HCT-15 colon,99.3 µM
same,TGI,HCT-15 colon,> 100 µM
same,GI50,HOP-62 NSCLC,2.62 µM
same,TGI,HOP-62 NSCLC,8.77 µM
same,GI50,HOP-92 NSCLC,2.53 µM
same,TGI,HOP-92 NSCLC,8.29 µM
same,GI50,HS 578T breast,3.37 µM
same,TGI,HS 578T breast,34.2 µM
same,GI50,IGROV1 ovarian,14.4 µM
same,TGI,IGROV1 ovarian,65.9 µM
same,GI50,KM12 colon,57.8 µM
same,TGI,KM12 colon,> 100 µM
same,GI50,LOX IMVI melanoma,4.49 µM
same,TGI,LOX IMVI melanoma,22.3 µM
same,GI50,M14 melanoma,18.3 µM
same,TGI,M14 melanoma,> 100 µM
same,GI50,MALME-3M melanoma,1.97 µM
same,TGI,MALME-3M melanoma,4.94 µM
same,GI50,MCF7 breast,74.1 µM
same,TGI,MCF7 breast,> 100 µM
same,GI50,MDA-MB-231 breast,5.09 µM
same,TGI,MDA-MB-231 breast,21.9 µM
same,GI50,MDA-MB-435,67.8 µM
same,TGI,MDA-MB-435,> 100 µM
same,GI50,MOLT-4 leukemia,75.6 µM
same,TGI,MOLT-4 leukemia,> 100 µM
same,GI50,NCI-H226 lung,3.35 µM
same,TGI,NCI-H226 lung,21.5 µM
same,GI50,NCI-H23 lung,10.9 µM
same,TGI,NCI-H23 lung,89.9 µM
same,GI50,NCI-H460 lung,7.09 µM
same,TGI,NCI-H460 lung,> 100 µM
same,GI50,NCI-H522 lung,6.4 µM
same,TGI,NCI-H522 lung,> 100 µM
same,GI50,NCI/ADR-RES ovarian,7.06 µM
same,TGI,NCI/ADR-RES ovarian,> 100 µM
same,GI50,OVCAR-3 ovarian,14.3 µM
same,TGI,OVCAR-3 ovarian,> 100 µM
same,GI50,OVCAR-5 ovarian,15.2 µM
same,TGI,OVCAR-5 ovarian,95.2 µM
same,GI50,OVCAR-8 ovarian,3.87 µM
same,TGI,OVCAR-8 ovarian,19.3 µM
same,GI50,PC-3 prostate,11.8 µM
same,TGI,PC-3 prostate,44.8 µM
same,GI50,RPMI-8226 leukemia,> 100 µM
same,TGI,RPMI-8226 leukemia,> 100 µM
same,GI50,RXF 393 renal,2.43 µM
same,TGI,RXF 393 renal,9.33 µM
same,GI50,SF-268 CNS,5.85 µM
same,TGI,SF-268 CNS,> 100 µM
same,GI50,SF-295 CNS,2.98 µM
same,TGI,SF-295 CNS,13.3 µM
same,GI50,SF-539 CNS,3.81 µM
same,TGI,SF-539 CNS,17.1 µM
same,GI50,SK-MEL-2 melanoma,13.6 µM
same,TGI,SK-MEL-2 melanoma,36.2 µM
same,GI50,SK-MEL-28 melanoma,3.79 µM
same,TGI,SK-MEL-28 melanoma,> 100 µM
same,GI50,SK-MEL-5 melanoma,21.7 µM
same,TGI,SK-MEL-5 melanoma,> 100 µM
same,GI50,SK-OV-3 ovarian,2.95 µM
same,TGI,SK-OV-3 ovarian,8.7 µM
same,GI50,SN12C renal,8.26 µM
same,TGI,SN12C renal,> 100 µM
same,GI50,SNB-19 CNS,3.82 µM
same,TGI,SNB-19 CNS,18.9 µM
same,GI50,SNB-75 CNS,1.71 µM
same,TGI,SNB-75 CNS,5.4 µM
same,GI50,SR leukemia,11.6 µM
same,TGI,SR leukemia,49.1 µM
same,GI50,SW-620 colon,> 100 µM
same,TGI,SW-620 colon,> 100 µM
same,GI50,T-47D breast,20.2 µM
same,TGI,T-47D breast,> 100 µM
same,GI50,TK-10 renal,16.5 µM
same,TGI,TK-10 renal,49.5 µM
same,GI50,UACC-257 melanoma,6.42 µM
same,TGI,UACC-257 melanoma,> 100 µM
same,GI50,UACC-62 melanoma,17.5 µM
same,TGI,UACC-62 melanoma,> 100 µM
same,GI50,UO-31 renal,23.9 µM
same,TGI,UO-31 renal,> 100 µM
